The values that follow come from patent US10034861B2 (priority 2016, dated 2018).

What all share (type): biochemical
Test [1] has as its target PDE1A (Homo sapiens (Human), UniProt P54750). As to the kind of experiment: biochemical. The text has this:
(§1) Table 1 lists the IC50 value for inhibition of PDE1 by the compounds of the invention. […] PDE1 assays are described in the Experimental Section.

Test [2] concerns the target PDE1C (Homo sapiens (Human), UniProt Q14123). As to the kind of experiment: biochemical.
From the text: as §1

The target in test [3] is PDE1B (Homo sapiens (Human), UniProt Q01064). Description: PDE1 inhibition assay (PDE1B). To be noted: 15 nM tritium labelled cAMP, 1 hr at room temperature, SPA beads.
From the text: as §1

The mark [4] stands for this setting: 15 nM tritium labelled cAMP, 1 hr at room temperature, SPA beads.

The structures appear in SMILES notation. Read-outs that look alike come from different tables or passages of the source.

Chain of PDE1B (Q01064 whole entry): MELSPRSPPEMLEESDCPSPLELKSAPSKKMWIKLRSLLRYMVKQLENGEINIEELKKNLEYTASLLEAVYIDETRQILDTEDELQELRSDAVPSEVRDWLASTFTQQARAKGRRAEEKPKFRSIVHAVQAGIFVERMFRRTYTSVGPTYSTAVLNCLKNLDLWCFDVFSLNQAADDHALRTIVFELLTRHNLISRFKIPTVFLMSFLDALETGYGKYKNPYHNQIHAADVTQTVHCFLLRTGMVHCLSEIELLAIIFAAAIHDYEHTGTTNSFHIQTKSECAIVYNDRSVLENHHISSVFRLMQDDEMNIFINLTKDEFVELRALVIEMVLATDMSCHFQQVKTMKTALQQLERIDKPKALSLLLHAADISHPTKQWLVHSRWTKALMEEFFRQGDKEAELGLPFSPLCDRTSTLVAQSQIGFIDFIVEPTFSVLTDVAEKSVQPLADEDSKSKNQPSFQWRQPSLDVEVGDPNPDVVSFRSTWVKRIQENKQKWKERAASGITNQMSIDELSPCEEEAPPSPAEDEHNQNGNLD
Chain of PDE1C (Q14123 whole entry): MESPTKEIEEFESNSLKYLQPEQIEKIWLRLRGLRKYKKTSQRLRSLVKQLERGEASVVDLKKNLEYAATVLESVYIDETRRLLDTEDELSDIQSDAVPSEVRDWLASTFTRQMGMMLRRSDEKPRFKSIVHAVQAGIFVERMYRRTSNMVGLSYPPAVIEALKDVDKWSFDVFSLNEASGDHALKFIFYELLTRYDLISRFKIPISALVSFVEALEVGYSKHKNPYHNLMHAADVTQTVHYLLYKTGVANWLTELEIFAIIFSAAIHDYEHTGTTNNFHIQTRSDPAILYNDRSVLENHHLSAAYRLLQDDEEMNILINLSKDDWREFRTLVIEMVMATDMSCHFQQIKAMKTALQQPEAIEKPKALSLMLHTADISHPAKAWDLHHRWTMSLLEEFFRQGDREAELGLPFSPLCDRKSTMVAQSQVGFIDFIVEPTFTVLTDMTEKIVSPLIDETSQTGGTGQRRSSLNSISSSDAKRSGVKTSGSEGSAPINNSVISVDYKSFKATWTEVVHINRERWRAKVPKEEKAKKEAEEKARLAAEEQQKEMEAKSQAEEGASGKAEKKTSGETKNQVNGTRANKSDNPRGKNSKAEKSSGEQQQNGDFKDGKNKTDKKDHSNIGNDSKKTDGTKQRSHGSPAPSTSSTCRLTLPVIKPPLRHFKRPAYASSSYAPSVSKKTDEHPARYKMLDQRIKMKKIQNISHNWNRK
Chain of PDE1A (P54750 whole entry): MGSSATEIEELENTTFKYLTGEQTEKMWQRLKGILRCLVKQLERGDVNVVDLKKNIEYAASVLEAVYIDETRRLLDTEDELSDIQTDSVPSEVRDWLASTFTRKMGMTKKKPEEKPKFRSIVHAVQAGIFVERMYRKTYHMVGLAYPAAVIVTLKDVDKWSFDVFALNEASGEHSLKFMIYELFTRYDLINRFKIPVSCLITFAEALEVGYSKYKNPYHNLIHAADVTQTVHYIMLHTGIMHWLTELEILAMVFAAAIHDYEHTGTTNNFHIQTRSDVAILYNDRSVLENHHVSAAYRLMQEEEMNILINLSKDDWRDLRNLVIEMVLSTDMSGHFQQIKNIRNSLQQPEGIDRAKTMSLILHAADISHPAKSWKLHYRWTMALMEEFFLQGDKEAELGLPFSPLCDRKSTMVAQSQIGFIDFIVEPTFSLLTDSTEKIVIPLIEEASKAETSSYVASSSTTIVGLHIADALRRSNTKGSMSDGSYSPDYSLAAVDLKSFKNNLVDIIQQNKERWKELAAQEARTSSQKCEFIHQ

Regarding `CCOc1ncccc1-c1cc(NCc2scnc2C)c2c(cnn2C(C)C)n1` [Example 71, 5-(2-ethoxy-3-pyridyl)-1-isopropyl-N-[(4-methylthiazol-5-yl)methyl]pyrazolo[4,3-b]pyridin-7-amine], the IC50 (in general, the midpoint of a concentration-inhibition curve) in test [1] worked out at 170 nM; in test [2], 180 nM; in test [3] (PDE1B, IC50 (nM)), 18 nM.
With `CCOc1ncccc1-c1cc(NCc2ccc(OC)nc2)c2c(n1)c(C)nn2C(C)C` [Example 111, 5-(2-ethoxy-3-pyridyl)-1-isopropyl-N-[(6-methoxy-3-pyridyl)methyl]-3-methyl-pyrazolo[4,3-b]pyridin-7-amine], the IC50 in test [1] (setting [4]) turned out to be 28 nM; in test [2] (setting [4]) it was 68 nM; in test [3] (read-out: PDE1B, IC50) it was 1.4 nM.
The corresponding values for `Cc1csc(-c2cc(NCc3cnn(C)c3)c3c(n2)c(C)nn3C(C)C)n1` [Example 149, 1-isopropyl-3-methyl-N-[(1-methylpyrazol-4-yl)methyl]-5-(4-methylthiazol-2-yl)pyrazolo[4,3-b]pyridin-7-amine] are 29 nM, 69 nM and 2.4 nM.
For `CCOc1ncccc1-c1cc(NCc2cncc(OC)c2)c2c(n1)c(C)nn2C(C)C` [Example 106, 5-(2-ethoxy-3-pyridyl)-1-isopropyl-N-[(5-methoxy-3-pyridyl)methyl]-3-methyl-pyrazolo[4,3-b]pyridin-7-amine] the same measures were 2.1 nM, 3.9 nM and 0.45 nM.
For `COc1ncccc1-c1cc(NCc2cnn(C)c2)c2c(n1)c(C)nn2C(C)C` [Example 62, 1-isopropyl-5-(2-methoxy-3-pyridyl)-3-methyl-N-[(1-methylpyrazol-4-yl)methyl]pyrazolo[4,3-b]pyridin-7-amine] the same measures were 16 nM, 21 nM and 2.4 nM.
Regarding `COc1ccc(CNc2cc(-c3cccnc3OC)nc3c(C)nn(C(C)C)c23)cn1` [Example 96, 1-isopropyl-5-(2-methoxy-3-pyridyl)-N-[(6-methoxy-3-pyridyl)methyl]-3-methyl-pyrazolo[4,3-b]pyridin-7-amine], the IC50 was 18 nM in test [1] (setting [4]); 5.3 nM in test [2] (setting [4]); 3.8 nM in test [3] (read-out: PDE1B, IC50).
Take `CCOc1ncccc1-c1cc(NCc2ncn(C)n2)c2c(cnn2C(C)CC)n1` (single isomer, unassigned) [Example 140, 5-(2-ethoxy-3-pyridyl)-1-[1-methylpropyl]-N-[(1-methyl-1,2,4-triazol-3-yl)methyl]pyrazolo[4,3-b]pyridin-7-amine]: the half-maximal inhibitory concentration (IC50) in test [1] (setting [4]) is 32 nM; in test [2], 52 nM; in test [3] (PDE1B, IC50 (nM)), 1.7 nM.
`Cc1nocc1-c1cc(NCc2cnn(C)c2)c2c(n1)c(C)nn2C(C)C` [Example 194, 1-isopropyl-3-methyl-5-(3-methylisoxazol-4-yl)-N-[(1-methylpyrazol-4-yl)methyl]pyrazolo[4,3-b]pyridin-7-amine]: the IC50 in test [1] (setting [4]) was 95 nM; in test [2] (setting [4]), 21 nM; in test [3] (read-out: PDE1B, IC50), 23 nM.
The corresponding values for `CCOc1ncccc1-c1cc(NCc2ncc(OC)cn2)c2c(n1)c(C)nn2C(C)C` [Example 176, 5-(2-ethoxy-3-pyridyl)-1-isopropyl-N-[(5-methoxypyrimidin-2-yl)methyl]-3-methyl-pyrazolo[4,3-b]pyridin-7-amine] are 81 nM, 93 nM and 12 nM.
For `COc1ccccc1-c1cc(NCc2cnn(C)c2)c2c(n1)c(C)nn2C(C)C` [Example 63, 1-isopropyl-5-(2-methoxyphenyl)-3-methyl-N-[(1-methylpyrazol-4-yl)methyl]pyrazolo[4,3-b]pyridin-7-amine] the same measures were 64 nM, 20 nM and 9.4 nM.
For `CCOc1ncccc1-c1cc(NCc2c[nH]c(C)n2)c2c(n1)c(C)nn2C(C)C` [Example 46, 5-(2-ethoxypyridin-3-yl)-1-isopropyl-3-methyl-N-((2-methyl-1H-imidazol-4-yl)methyl)-1H-pyrazolo[4,3-b]pyridin-7-amine] the same measures were 5 nM, 9.7 nM and 0.42 nM.
For the molecule `COc1ncccc1CNc1cc(-c2ccc[nH]c2=O)nc2c(C)nn(C(C)C)c12` [Example 171, 3-[1-isopropyl-7-[(2-methoxy-3-pyridyl)methylamino]-3-methyl-pyrazolo[4,3-b]pyridin-5-yl]-1H-pyridin-2-one], the 50% inhibitory concentration (IC50) was determined as 290 nM in test [1] (setting [4]); 420 nM in test [2] (setting [4]); 47 nM in test [3] (read-out: PDE1B, IC50).
Consider `Cc1nn(C(C)C)c2c(NCc3cnn(C)c3)cc(N3CCOC3=O)nc12` [Example 151, 3-[1-isopropyl-3-methyl-7-[(1-methylpyrazol-4-yl)methylamino]pyrazolo[4,3-b]pyridin-5-yl]oxazolidin-2-one], for which the IC50 amounted to 10 nM in test [1] (setting [4]); 12 nM in test [2] (setting [4]); 4.7 nM in test [3] (read-out: PDE1B, IC50).
For `CCOc1ncccc1-c1cc(NCc2n[nH]c(C)n2)c2c(n1)c(C)nn2C(C)C` [Example 55, 5-(2-ethoxy-3-pyridyl)-1-isopropyl-3-methyl-N-[(5-methyl-1H-1,2,4-triazol-3-yl)methyl]pyrazolo[4,3-b]pyridin-7-amine], the half-maximal inhibitory concentration (IC50) in test [1] (setting [4]) is 3.4 nM; in test [2] (setting [4]) it was 5.5 nM; in test [3] (read-out: PDE1B, IC50), 0.51 nM.
For `Cc1nn(C(C)C)c2c(NCc3cnn(C)c3)cc(N3CCN(C(C)(C)C)C3=O)nc12` [Example 153, 1-tert-butyl-3-[1-isopropyl-3-methyl-7-[(1-methylpyrazol-4-yl)methylamino]pyrazolo[4,3-b]pyridin-5-yl]imidazolidin-2-one] the same measures were 130 nM, 270 nM and 76 nM.
For `CCOc1ncccc1-c1cc(CCc2cncc(OC)c2)c2c(n1)c(C)nn2C(C)C` [Example 159, 5-(2-ethoxy-3-pyridyl)-1-isopropyl-7-[2-(5-methoxy-3-pyridyl)ethyl]-3-methyl-pyrazolo[4,3-b]pyridine], the IC50 in test [1] (setting [4]) was 270 nM; in test [2] (setting [4]) it was 1600 nM; in test [3] (read-out: PDE1B, IC50), 70 nM.
`CCOc1ncccc1-c1cc(NCc2cccc(C)c2)c2c(cnn2C(C)C)n1` [Example 23, 5-(2-ethoxy-3-pyridyl)-1-isopropyl-N-(m-tolylmethyl)pyrazolo[4,3-b]pyridin-7-amine]: the IC50 in test [1] (setting [4]) worked out at 240 nM; in test [2] (setting [4]), 750 nM; in test [3] (read-out: PDE1B, IC50) it was 38 nM.
The corresponding values for `CCOc1ncccc1-c1cc(NCc2cc(CF)no2)c2c(n1)c(C)nn2C(C)C` [Example 167, 5-(2-ethoxy-3-pyridyl)-N-[[3-(fluoromethyl)isoxazol-5-yl]methyl]-1-isopropyl-3-methyl-pyrazolo[4,3-b]pyridin-7-amine] are 11 nM, 33 nM and 1 nM.
The corresponding values for `CCOc1ncccc1-c1cc(NCc2cccnc2OC)c2c(n1)c(C)nn2C(C)C` [Example 86, 5-(2-ethoxy-3-pyridyl)-1-isopropyl-N-[(2-methoxy-3-pyridyl)methyl]-3-methyl-pyrazolo[4,3-b]pyridin-7-amine] are 20 nM, 68 nM and 0.36 nM.
For `CCOc1ncccc1-c1cc(NCc2cc(OC)ccn2)c2c(n1)c(C)nn2C(C)C` [Example 81, 5-(2-ethoxy-3-pyridyl)-1-isopropyl-N-[(4-methoxy-2-pyridyl)methyl]-3-methyl-pyrazolo[4,3-b]pyridin-7-amine] the same measures were 1 nM, 4.7 nM and 0.26 nM.
For the molecule `CCOc1ncccc1-c1cc(NCc2ncn(C)n2)c2c(cnn2C(C)C)n1` [Example 56, 5-(2-ethoxy-3-pyridyl)-1-isopropyl-N-[(1-methyl-1,2,4-triazol-3-yl)methyl]pyrazolo[4,3-b]pyridin-7-amine], the IC50 in test [1] (setting [4]) turned out to be 16 nM; in test [2] (setting [4]), 45 nM; in test [3] (read-out: PDE1B, IC50), 1 nM.
On to `Cc1nn(C(C)C)c2c(NCc3cnn(C)c3)cc(-c3ncnn3C)nc12` [Example 195, 1-isopropyl-3-methyl-5-(1-methyl-1H-1,2,4-triazol-5-yl)-N-((1-methyl-1H-pyrazol-4-yl)methyl)-1H-pyrazolo[4,3-b]pyridin-7-amine], for which the IC50 came to 420 nM in test [1] (setting [4]); 160 nM in test [2] (setting [4]); 110 nM in test [3] (read-out: PDE1B, IC50).
Turning to `CCOc1ncccc1-c1cc(NCc2cnn(C)c2)c2c(cnn2C2COC2)n1` [Example 14, 5-(2-ethoxypyridin-3-yl)-N-((1-methyl-1H-pyrazol-4-yl)methyl)-1-(oxetan-3-yl)-1H-pyrazolo[4,3-b]pyridin-7-amine], the IC50 came to 450 nM in test [1] (setting [4]); 300 nM in test [2] (setting [4]); 38 nM in test [3] (read-out: PDE1B, IC50).
For `CCOc1ncccc1-c1cc(NCc2nccnc2OC)c2c(n1)c(C)nn2C(C)C` [Example 91, 5-(2-ethoxy-3-pyridyl)-1-isopropyl-N-[(3-methoxypyrazin-2-yl)methyl]-3-methyl-pyrazolo[4,3-b]pyridin-7-amine] the same measures were 27 nM, 70 nM and 2.3 nM.
With `CCOc1ncccc1-c1cc(NCc2cc[nH]n2)c2c(cnn2C(C)C)n1` [Example 57, 5-(2-ethoxy-3-pyridyl)-1-isopropyl-N-(1H-pyrazol-3-ylmethyl)pyrazolo[4,3-b]pyridin-7-amine], the IC50 in test [1] (setting [4]) is 98 nM; in test [2] (setting [4]), 170 nM; in test [3] (read-out: PDE1B, IC50), 4.8 nM.
The corresponding values for `CCOc1ncccc1-c1cc(NCc2cnn(C)c2)c2c(n1)c(C)nn2CC` [Example 48, 5-(2-ethoxypyridin-3-yl)-1-ethyl-3-methyl-N-((1-methyl-1H-pyrazol-4-yl)methyl)-1H-pyrazolo[4,3-b]pyridin-7-amine] are 38 nM, 170 nM and 6.3 nM.
